Experimental data published in patent US5389621A, “Method of enhancing the anticoagulant effects of aspirin using salicylamide” (University of Medicine and Dentistry of New Jersey, priority 1994, dated 1995).
Entries after “also recorded” stand apart in the source; their conditions may differ. Read-outs that look alike come from different tables or passages of the source.

How the values were obtained:
[1] = Tightly protein-bound 14C radioactivity after 14C-salicylamide; assay type: in vivo, male Sprague-Dawley rats; conditions: for Effect on tightly protein-bound 14C in lung: 14C-SAM with ASA; for Tightly protein-bound 14C in heart / Tightly protein-bound 14C in kidney / Tightly protein-bound 14C in liver / Tightly protein-bound 14C in lung / Tightly protein-bound 14C in plasma: 1.5 hr
Experimental: (§1) Forty-eight rats were divided into two groups.
(§2) The rats were anesthetized by light diethyl ether inhalation.
(§3) The plasma tightly protein-bound activity was measured by adding 100 μl of 10% trichloroacetic acid (TCA) to 100 μl of plasma in microcentrifuge tubes and vortexing the contents for 1 minute followed by centrifugation at 1800×g for 10 minutes. The supernatant was decanted and the tubes with the pellets in them were placed in scintillation vials each containing 15 ml of Aquasol-2 scintillation fluid. […] The radioactivity in the scintillation vials was counted in Beckman LS counter.
In the case of plasma analysis, 100 μl samples were used and the remainder of the procedure was the same as described above. The pellets were not dissolved but instead directly poured in a tube containing 15 ml of the scintillation fluid and the radioactivity was measured in the Beckman LS counter.

[2] = Excretion study: effect of salicylamide on aspirin excretion; conditions: for Rate order of excretion of metabolites: first 24 hours, urine
Experimental: (§4) Male adult Sprague-Dawley rats (300-325 gm) obtained from Charles River Breeding Laboratory, N. Wilmington, Mass. were quarantined for one week. All animals were identified by ear punching. Food and water were provided ad libitum. The animals were maintained on rodent lab chow diet in a controlled environment with 50% humidity and 12 hour light/dark cycle.
The dose of radiolabeled ASA administered was 5 μCi per rat. Rats were fasted overnight prior to the administration of the treatments.
Rats were gavaged with the treatment solution and were immediately placed in Silverman metabolic glass chambers (Bioserv, Inc., Frenchtown, N.J.), one rat per chamber. Rats were administered water ad libitum while food was withheld until 1.5 hours following treatment administration. Urine was collected at 8, 16, 24, 48 and 72 hours. Feces were collected in preweighed clean plastic cups at 24, 48 and 72 hours after dosing. The expired air was channeled through a series of activated charcoal tubes to trap any radiolabeled compound that is excreted via the lungs and the tubes were collected at the end of the study 72 hours after dosing.
The urine samples were collected and the volume was measured using a 10 ml graduated glass pipette. The urine was shaken, and 100 μl of each urine sample were pipetted in a scintillation vial with 15 ml of Aquasol-2 for radioactivity assessment. The rest of the urine was stored at -70° C. for later analysis of its content of salicylic acid (SA) and salicyluric acid (SUA), the major metabolites of ASA.
Fecal weight was determined for each time-point collection and deionized water was added to feces in a ratio of feces:water, 1:3 (w/w).
The activated charcoal was carefully emptied in small glass tubes and extracted with 1 ml of methanol and the tubes were then centrifuged at 1800×g for 15 minutes.
Urine was further studied for its content of the ASA metabolites, namely SA and SUA. Waters HPLC system (Waters Chromatography, Division of Millipore, Milford, Mass.) with 3.9 mm×15 cm NOVA-PAK 4 μm silica packing steel column, C-18 Guard-Pak, and Milli-Q(tm) Millipore water filtration system were used for the characterization of SA and SUA. An isocratic methodology was developed and the separation was optimal by a mobile phase of 2% acetic acid/methanol, 70:30, at a flow rate of 1 ml/min. and a detection wavelength of 240 nm. One hundred μl of the collected 8 and 16 hour urine samples were diluted with 4 ml of methanol/mobile phase mixture (1:1) while the dilution was only with 2 ml for the 24, 48 and 72 hour urine samples.
The fractions under the specific retentiontimes of SA and SUA were collected in scintillation vials containing 15 ml of the scintillation cocktail and the radioactivity content was counted. The retention times of SA and SUA were determined by injection of authentic standard solution. Corrections have been made for the quenching effect of the mobile phase.
Student-t test and one way analysis of variance (ANOVA) followed by Scheffe multiple range test were used where appropriate. The accepted level of significance of difference was p<0.05.

[3] = Tissue distribution of 14C-salicylamide (parent) by HPLC; assay type: in vivo, male Sprague-Dawley rats; conditions: for concentration at 1.5 h: rat
Description: as §1, §2

[4] = Tissue distribution of aspirin and its metabolites (SA, SUA, GA, DBA) by HPLC after 14C-aspirin; conditions: for Aspirin level in tissues studied (plasma, lung, liver, heart, kidney): 1.5 hours after 14C-ASA alone or with SAM, low and high doses
Experimental: as §4
(§5) Forty-eight rats were divided into two groups. The first group of rats was administered ASA, SAM or their combination in a dose approximately equal (w/w) to that in the commercially available combinations, e.g., BC® formula, when administered to humans, i.e., 10 and 3 mg/kg of ASA and SAM, respectively. The second group was administered double the dosage received by the first group.
(§6) The rats were anesthetized by light diethyl ether inhalation. A blood sample of nearly 3 ml was collected by cardiac puncture 1.5 hours after oral administration. The blood was transferred to chilled polyethylene tubes containing 30 μl of 50% (w/w) potassium fluoride to prevent hydrolysis of ASA. A 300 μl aliquot was pipetted in a scintillation vial to study the distribution in whole blood. The rest of the collected blood was immediately centrifuged at 1800×g for 10 minutes at 4° C. and the plasma was decanted. 100 μl of the plasma were pipetted in a scintillation vial for measurement of the total radioactivity and the rest of the plasma was stored immediately at -70° C. for later study of the distribution of the metabolites.
Liver, kidney, plasma, lung and heart were stored at -70° C. for later study of their content of the metabolites of aspirin or salicylamide using an HPLC method. Liver, kidney and plasma of the rats treated with aspirin or the combination were also investigated for the presence of salicyl glucuronide conjugates by using HPLC and acid hydrolysis assays.
A Waters HPLC system (Waters Chromatography, Division of Millipore, Milford, Mass.) was used, consisting of: Waters 680 automated gradient controller, two model 510 pumps, model U6K universal liquid chromatography injector, Lambda Max model 481 variable wavelength UV/Vis absorbance detector, Data Module 730, 3.9 mm×15 cm NOVA-PAK 4 μm silica packing steel column, C-18 Guard-Pak, Hamilton syringes of 10, 100, and 250 μl capacity (Hamilton Co., Reno, Nev.), and Milli-Q(tm) Millipore water filtration system #CDOFO 1205 (Waters, Division of Millipore, Milford, Mass.).
1--For the analysis of ASA and its metabolites in tissues: the mobile phase was 2% acetic acid/methanol, 95:5, at a flow rate of 1.4 ml/minute.
The detection wavelength was 240 nm and the sensitivity of the detector was 0.02 AUFS (Absorbance Unit Full Scale).

[5] = Tightly protein-bound 14C radioactivity after 14C-aspirin; assay type: in vivo, male Sprague-Dawley rats
Experimental: as §5, §6, §3

[6] = oral 14C-SAM 3 mg/kg, alone or with ASA 10 mg/kg
[7] = oral 14C-SAM 6 mg/kg, alone or with ASA 20 mg/kg
[8] = 1.5 hr, oral 14C-ASA 10 mg/kg, alone or with SAM 3 mg/kg
[9] = 1.5 hr, oral 14C-ASA 20 mg/kg, alone or with SAM 6 mg/kg
[10] = oral 14C-ASA 10 mg/kg, alone or with SAM 3 mg/kg
[11] = rat, in vivo, po, 10 mg/kg, 72 h

CC(=O)Oc1ccccc1C(=O)O [ASA, acetylsalicylic acid]
Effect on tightly protein-bound 14C in lung ([1]; high dose): reached a significant level
Effect on tightly protein-bound 14C in lung ([1]; low dose): tended to be higher
Effect of ASA on tightly protein-bound 14C in heart ([1]; low dose combination): significantly enhanced
Rate order of excretion of metabolites [2]: first-order rate fashion
Change of 14C-SAM in lung by ASA ([3]; low and high dose combinations): significantly lower
Change of 14C-SAM in kidney by ASA ([3]; low dose combination): significantly reduced
Increase of 14C-SAM in liver with ASA ([3]; lower dose combination): about 50%
Aspirin level in tissues studied (plasma, lung, liver, heart, kidney) [4]: not detected in the plasma
Aspirin level in tissues studied (plasma, lung, liver, heart, kidney) ([4]; listed as aspirin): not detected

N[14C](=O)c1ccccc1O [^14 C-SAM]
Tightly protein-bound 14C in heart [1, 6]: 20.6 ± 1.7 ng ^14 C/gm tissue
Tightly protein-bound 14C in kidney [1, 6]: 669.0 ± 45.1 ng ^14 C/gm tissue
Tightly protein-bound 14C in liver [1, 6]: 24.2 ± 4.0 ng ^14 C/gm tissue
Tightly protein-bound 14C in lung [1, 6]: 43.1 ± 6.1 ng ^14 C/gm tissue
Tightly protein-bound 14C in plasma [1, 6]: 57.8 ± 3.0 ng ^14 C/ml plasma
Tightly protein-bound 14C in heart [1, 7]: 87.7 ± 11.0 ng ^14 C/gm tissue
Tightly protein-bound 14C in kidney [1, 7]: 1104.5 ± 212.6 ng ^14 C/gm tissue
Tightly protein-bound 14C in liver [1, 7]: 72.6 ± 10.7 ng ^14 C/gm tissue
Tightly protein-bound 14C in lung [1, 7]: 134.8 ± 20.7 ng ^14 C/gm tissue
Tightly protein-bound 14C in plasma [1, 7]: 154.6 ± 29.8 ng ^14 C/ml plasma
14C-SAM in heart ([3]; 14C-SAM 3 mg/kg with or without ASA 10 mg/kg): not detected
14C-SAM in heart ([3]; 1.5 hours, 14C-SAM 6 mg/kg alone or 14C-SAM/ASA 6/20 mg/kg): detected in the heart
concentration at 1.5 h ([3]; heart, oral 14C-SAM 6 mg/kg, alone or with ASA 20 mg/kg, ND = not detected, read-out: 14C-salicylamide in heart): 2.9 ± 1.7 ng/g
concentration at 1.5 h ([3]; kidney, oral 14C-SAM 3 mg/kg, alone or with ASA 10 mg/kg, read-out: 14C-salicylamide in kidney): 152 ± 13.4 ng/g
concentration at 1.5 h ([3]; kidney, oral 14C-SAM 6 mg/kg, alone or with ASA 20 mg/kg, read-out: 14C-salicylamide in kidney): 181 ± 18.3 ng/g
concentration at 1.5 h ([3]; liver, oral 14C-SAM 3 mg/kg, alone or with ASA 10 mg/kg, read-out: 14C-salicylamide in liver): 16.6 ± 5.3 ng/g
concentration at 1.5 h ([3]; liver, oral 14C-SAM 6 mg/kg, alone or with ASA 20 mg/kg, read-out: 14C-salicylamide in liver): 29.4 ± 3.3 ng/g
concentration at 1.5 h ([3]; lung, oral 14C-SAM 3 mg/kg, alone or with ASA 10 mg/kg, read-out: 14C-salicylamide in lung): 17.1 ± 3 ng/g
concentration at 1.5 h ([3]; lung, oral 14C-SAM 6 mg/kg, alone or with ASA 20 mg/kg, read-out: 14C-salicylamide in lung): 41.9 ± 3.9 ng/g

CC(=O)Oc1ccccc1[14C](=O)O [^14 C-ASA]
Tightly protein-bound 14C in heart [5, 8]: 2.30 ± 0.28 μg ^14 C/gm tissue
Tightly protein-bound 14C in kidney [5, 8]: 3.85 ± 0.30 μg ^14 C/gm tissue
Tightly protein-bound 14C in liver [5, 8]: 3.93 ± 0.04 μg ^14 C/gm tissue
Tightly protein-bound 14C in lung [5, 8]: 1.62 ± 0.14 μg ^14 C/gm tissue
Tightly protein-bound 14C in plasma [5, 8]: 26.95 ± 2.67 μg ^14 C/ml plasma
Tightly protein-bound 14C in heart [5, 9]: 5.79 ± 0.40 μg ^14 C/gm tissue
Tightly protein-bound 14C in kidney [5, 9]: 11.66 ± 0.29 μg ^14 C/gm tissue
Tightly protein-bound 14C in liver [5, 9]: 9.81 ± 0.12 μg ^14 C/gm tissue
Tightly protein-bound 14C in lung [5, 9]: 5.84 ± 0.40 μg ^14 C/gm tissue
14C radioactivity recovered in urine ([2]; 14C-ASA alone or in combination with SAM): Almost all the ^14 C radioactivity
SA share of the radioactivity excreted in urine ([2]; 14C-ASA alone or with SAM): more than 50%
SUA share of the metabolites in urine ([2]; 14C-ASA alone or with SAM): approximately 15%
14C in expired air ([2]; 14C-ASA or 14C-CO2): No radioactivity was found
Absorption from the gut ([2]; 14C-ASA oral): essentially a complete absorption
Rate order of excretion of metabolites [2]: first-order rate pattern
Urinary excretion of 14C, 0-72 hr [2, 10]: 3055 ± 23 μg ^14 C
Urinary excretion of 14C, 8-16 hr [2, 10]: 619 ± 124 μg ^14 C
Urinary excretion of 14C, 16-24 hr [2, 10]: 92 ± 26 μg ^14 C
Urinary excretion of 14C, 24-48 hr [2, 10]: 60 ± 19 μg ^14 C
Urinary excretion of 14C, 48-72 hr [2, 10]: 11 ± 3 μg ^14 C
Urinary excretion of 14C, 0-8 hr ([2]; oral 14C-ASA 10 mg/kg, alone or with SAM 3 mg/kg, mean ± SE, n=6): 2227 ± 138 μg ^14 C
Bioavailability of 14C ([2]; rat, in vivo, po, 10 mg/kg): 100%
14C excreted in feces [2, 11]: 1.0 ± 0.1 percentage of the dose
14C excreted in urine [2, 11]: 100.2 ± 0.8 percentage of the dose
Recovery of the administered dose [2, 11]: 100%
Total Recovery of 14C [2, 11]: 101.7 ± 0.8 percentage of the dose
SUA in lung, heart, liver and plasma ([4]; 14C-ASA alone and with SAM): not detected; also recorded: The liver had no detectable level of SUA
Difference in kidney 14C-SUA with or without SAM ([4]; low or high dose): no significant difference
Gentisic acid and 2,3-dihydroxybenzoic acid in tissues ([4]; low or high dose): not detected

NC(=O)c1ccccc1O [SAM, Salicylamide]
Change of tightly protein-bound 14C, high dose ([5]; 14C-ASA with SAM 20/6 mg/kg): did not reach significant levels
Change of tightly protein-bound 14C in kidney ([5]; low and high doses): not influenced
Urinary SA, SUA and SA glucuronide, 0-8 hours ([2]; ASA coadministered with SAM vs ASA alone): higher in the urine
Effect on urinary 14C, 0-8 hour period ([2]; SAM coadministered with 14C-ASA): increased
Effect on urinary 14C, 8-28 hour period (so in the source) ([2]; SAM coadministered with 14C-ASA vs 14C-ASA alone): significantly decreased
Urinary content of SA, SUA and SA glucuronide after 0-8 hours ([2]; SAM coadministration vs 14C-ASA alone): decreased
Effect on pattern of excretion of ASA metabolites in urine ([2]; SAM with 14C-ASA, low doses): did not affect the pattern of excretion of ASA metabolites in urine
Parent SAM in plasma ([3]; 1.5 hours, 14C-SAM alone and with ASA, low and high doses): not detected
Change of 14C-SA in kidney (low and high dose) and liver (high dose) ([4]; SAM with 14C-ASA): not markedly altered
